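Cultured in 96-well plates, cells were exposed to test compound for 48 hours across five concentrations. GI50 is the concentration that inhibits growth by half.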 Activity calls are given as the source filed them. No stated cut-off is given here; in the data, active = GI50 up to about 1.1 µM and inactive = higher.
What was measured:
Assay in all cases: NCI tumour cell line growth inhibition, 48 h
786-0 = tested on: 786-0
A498 = tested on: A498
A549 = tested on: A549
ACHN = tested on: ACHN
BT-549 = tested on: BT-549
CAKI-1 = tested on: CAKI-1
CCRF-CEM = tested on: CCRF-CEM
COLO 205 = tested on: COLO 205
DU-145 = tested on: DU-145
EKVX = tested on: EKVX
HCC 2998 = tested on: HCC 2998
HCT-116 = tested on: HCT-116
HCT-15 = tested on: HCT-15
HL-60 = tested on: HL-60
HOP-62 = tested on: HOP-62
HOP-92 = tested on: HOP-92
HT-29 = tested on: HT-29
Hs-578T = tested on: Hs-578T
IGROV-1 = tested on: IGROV-1
K562 = tested on: K562
KM12 = tested on: KM12
LOX IMVI = tested on: LOX IMVI
M14 = tested on: M14
MCF7 = tested on: MCF7
MDA-MB-231 = tested on: MDA-MB-231
MDA-MB-435 = tested on: MDA-MB-435
MDA-N = tested on: MDA-N
MOLT-4 = tested on: MOLT-4
Malme-3M = tested on: Malme-3M
NCI-H226 = tested on: NCI-H226
NCI-H23 = tested on: NCI-H23
NCI-H460 = tested on: NCI-H460
NCI-H522 = tested on: NCI-H522
NCI/ADR-RES = tested on: NCI/ADR-RES
OVCAR-3 = tested on: OVCAR-3
OVCAR-4 = tested on: OVCAR-4
OVCAR-5 = tested on: OVCAR-5
OVCAR-8 = tested on: OVCAR-8
PC-3 = tested on: PC-3
RPMI-8226 = tested on: RPMI-8226
RXF 393 = tested on: RXF 393
SF-268 = tested on: SF-268
SF-295 = tested on: SF-295
SF-539 = tested on: SF-539
SK-MEL-28 = tested on: SK-MEL-28
SK-MEL-2 = tested on: SK-MEL-2
SK-MEL-5 = tested on: SK-MEL-5
SK-OV-3 = tested on: SK-OV-3
SN12C = tested on: SN12C
SNB-19 = tested on: SNB-19
SNB-75 = tested on: SNB-75
SR = tested on: SR
SW-620 = tested on: SW-620
T47D = tested on: T47D
TK-10 = tested on: TK-10
U-251 = tested on: U-251
UACC-257 = tested on: UACC-257
UACC-62 = tested on: UACC-62
UO-31 = tested on: UO-31

CCC1(O)CC(O)c2c(O)c3c(c(O)c2C1C(=O)OC)C(=O)c1cccc(O)c1C3=O (configuration not stated)
GI50 (786-0): 2750 nM (inactive)
GI50 (A498): 3780 nM (inactive)
GI50 (A549): 3640 nM (inactive)
GI50 (ACHN): 3000 nM (inactive)
GI50 (BT-549): 6850 nM (inactive)
GI50 (CAKI-1): 3430 nM (inactive)
GI50 (CCRF-CEM): 1530 nM (inactive)
GI50 (COLO 205): 2210 nM (inactive)
GI50 (DU-145): 5420 nM (inactive)
GI50 (EKVX): 2180 nM (inactive)
GI50 (HCC 2998): 4430 nM (inactive)
GI50 (HCT-116): 2890 nM (inactive)
GI50 (HCT-15): 1540 nM
GI50 (HL-60): 794 nM (active)
GI50 (HOP-62): 3220 nM (inactive)
GI50 (HOP-92): 9310 nM (inactive)
GI50 (HT-29): 3270 nM (inactive)
GI50 (Hs-578T): 4700 nM (inactive)
GI50 (IGROV-1): 1390 nM (inactive)
GI50 (K562): 1960 nM (inactive)
GI50 (KM12): 1100 nM (active)
GI50 (LOX IMVI): 2370 nM (inactive)
GI50 (M14): 2870 nM (inactive)
GI50 (MCF7): 3280 nM (inactive)
GI50 (MDA-MB-231): 2900 nM (inactive)
GI50 (MDA-MB-435): 5450 nM (inactive)
GI50 (MDA-N): 5360 nM (inactive)
GI50 (MOLT-4): 415 nM (active)
GI50 (Malme-3M): 1940 nM (inactive)
GI50 (NCI-H226): 3400 nM (inactive)
GI50 (NCI-H23): 3290 nM (inactive)
GI50 (NCI-H460): 1700 nM (inactive)
GI50 (NCI-H522): 1750 nM (inactive)
GI50 (NCI/ADR-RES): 656 nM (active)
GI50 (OVCAR-3): 2050 nM (inactive)
GI50 (OVCAR-4): 2960 nM (inactive)
GI50 (OVCAR-5): 4860 nM (inactive)
GI50 (OVCAR-8): 1630 nM (inactive)
GI50 (PC-3): 2860 nM (inactive)
GI50 (RPMI-8226): 2210 nM (inactive)
GI50 (RXF 393): 7670 nM (inactive)
GI50 (SF-268): 2440 nM (inactive)
GI50 (SF-295): 2660 nM (inactive)
GI50 (SF-539): 3850 nM (inactive)
GI50 (SK-MEL-28): 11400 nM (inactive)
GI50 (SK-MEL-2): 3120 nM (inactive)
GI50 (SK-MEL-5): 1840 nM (inactive)
GI50 (SK-OV-3): 4490 nM (inactive)
GI50 (SN12C): 2920 nM (inactive)
GI50 (SNB-19): 2450 nM (inactive)
GI50 (SNB-75): 6310 nM (inactive)
GI50 (SR): 1120 nM (inactive)
GI50 (SW-620): 4670 nM (inactive)
GI50 (T47D): 3770 nM (inactive)
GI50 (TK-10): 7670 nM (inactive)
GI50 (U-251): 3740 nM (inactive)
GI50 (UACC-257): 3650 nM (inactive)
GI50 (UACC-62): 3000 nM (inactive)
GI50 (UO-31): 3180 nM (inactive)

COc1ccc2c(c1)Cc1c(NCCN(C)C)ccc(C(=O)NCCCN(C)CCCNC(=O)c3ccc(NCCN(C)C)c4c3Nc3ccc(OC)cc3C4)c1N2
GI50 (786-0): < 10 nM (active)
GI50 (A498): < 40.4 nM (active)
GI50 (A549): < 10 nM (active)
GI50 (ACHN): 34.3 nM (active)
GI50 (BT-549): 148 nM (active)
GI50 (CAKI-1): 753 nM (active)
GI50 (CCRF-CEM): < 39.3 nM (active)
GI50 (COLO 205): < 10 nM (active)
GI50 (DU-145): < 10 nM (active)
GI50 (EKVX): 116 nM (active)
GI50 (HCC 2998): < 10 nM (active)
GI50 (HCT-116): < 10 nM (active)
GI50 (HCT-15): 728 nM
GI50 (HL-60): 35.8 nM (active)
GI50 (HOP-62): < 10 nM (active)
GI50 (HOP-92): 143 nM (active)
GI50 (HT-29): < 10 nM (active)
GI50 (Hs-578T): < 10 nM (active)
GI50 (IGROV-1): < 10 nM (active)
GI50 (K562): < 11 nM (active)
GI50 (KM12): < 10 nM (active)
GI50 (LOX IMVI): < 10 nM (active)
GI50 (M14): 150 nM (active)
GI50 (MCF7): < 10 nM (active)
GI50 (MDA-MB-231): 32.2 nM (active)
GI50 (MDA-MB-435): < 10 nM (active)
GI50 (MDA-N): < 10 nM (active)
GI50 (MOLT-4): < 10 nM (active)
GI50 (Malme-3M): < 10 nM (active)
GI50 (NCI-H226): < 25.4 nM (active)
GI50 (NCI-H23): < 21.2 nM (active)
GI50 (NCI-H460): < 10 nM (active)
GI50 (NCI-H522): < 10 nM (active)
GI50 (NCI/ADR-RES): 4200 nM (inactive)
GI50 (OVCAR-3): < 18.7 nM (active)
GI50 (OVCAR-4): < 18.4 nM (active)
GI50 (OVCAR-5): < 24.8 nM (active)
GI50 (OVCAR-8): < 10 nM (active)
GI50 (PC-3): < 10 nM (active)
GI50 (RPMI-8226): < 10 nM (active)
GI50 (RXF 393): 154 nM (active)
GI50 (SF-268): < 10 nM (active)
GI50 (SF-295): 21.3 nM (active)
GI50 (SF-539): 209 nM (active)
GI50 (SK-MEL-28): 142 nM (active)
GI50 (SK-MEL-2): < 10 nM (active)
GI50 (SK-MEL-5): 29.9 nM (active)
GI50 (SK-OV-3): < 10 nM (active)
GI50 (SN12C): < 10 nM (active)
GI50 (SNB-19): < 10 nM (active)
GI50 (SNB-75): < 10 nM (active)
GI50 (SR): < 10 nM (active)
GI50 (SW-620): < 15.8 nM (active)
GI50 (T47D): 150 nM (active)
GI50 (TK-10): 72.4 nM (active)
GI50 (U-251): < 10 nM (active)
GI50 (UACC-257): 30.3 nM (active)
GI50 (UACC-62): < 22.8 nM (active)
GI50 (UO-31): 362 nM (active)

C=C1c2nc3ccccc3n2C=C(c2ccc(OC)cc2)N1c1ccccc1
GI50 (786-0): 6110 nM (inactive)
GI50 (A498): 31000 nM (inactive)
GI50 (A549): 5370 nM (inactive)
GI50 (ACHN): 39700 nM (inactive)
GI50 (BT-549): 6640 nM (inactive)
GI50 (CAKI-1): 37800 nM (inactive)
GI50 (CCRF-CEM): 3660 nM (inactive)
GI50 (COLO 205): 5360 nM (inactive)
GI50 (DU-145): 28600 nM (inactive)
GI50 (EKVX): 19000 nM (inactive)
GI50 (HCC 2998): 3750 nM (inactive)
GI50 (HCT-116): 3950 nM (inactive)
GI50 (HCT-15): 3100 nM
GI50 (HL-60): 1590 nM (inactive)
GI50 (HOP-62): 36800 nM (inactive)
GI50 (HOP-92): 30200 nM (inactive)
GI50 (HT-29): 9680 nM (inactive)
GI50 (Hs-578T): 14400 nM (inactive)
GI50 (IGROV-1): 5850 nM (inactive)
GI50 (K562): 2620 nM (inactive)
GI50 (KM12): 2620 nM (inactive)
GI50 (LOX IMVI): 7360 nM (inactive)
GI50 (M14): 4430 nM (inactive)
GI50 (MCF7): 4760 nM (inactive)
GI50 (MDA-MB-231): 11100 nM (inactive)
GI50 (MDA-MB-435): 1170 nM (inactive)
GI50 (MDA-N): 1430 nM (inactive)
GI50 (MOLT-4): 3950 nM (inactive)
GI50 (Malme-3M): 3980 nM (inactive)
GI50 (NCI-H226): 4120 nM (inactive)
GI50 (NCI-H23): 11700 nM (inactive)
GI50 (NCI-H460): 3940 nM (inactive)
GI50 (NCI-H522): 2210 nM (inactive)
GI50 (NCI/ADR-RES): 2340 nM (inactive)
GI50 (OVCAR-3): 6620 nM (inactive)
GI50 (OVCAR-4): 17900 nM (inactive)
GI50 (OVCAR-5): > 78500 nM (inactive)
GI50 (OVCAR-8): 8610 nM (inactive)
GI50 (PC-3): 9120 nM (inactive)
GI50 (RPMI-8226): 3650 nM (inactive)
GI50 (RXF 393): 6710 nM (inactive)
GI50 (SF-268): 50000 nM (inactive)
GI50 (SF-295): 3440 nM (inactive)
GI50 (SF-539): 6670 nM (inactive)
GI50 (SK-MEL-28): 29600 nM (inactive)
GI50 (SK-MEL-2): 5280 nM (inactive)
GI50 (SK-MEL-5): 3990 nM (inactive)
GI50 (SK-OV-3): 47800 nM (inactive)
GI50 (SN12C): 24000 nM (inactive)
GI50 (SNB-19): 11300 nM (inactive)
GI50 (SNB-75): 4990 nM (inactive)
GI50 (SR): 1960 nM (inactive)
GI50 (SW-620): 3660 nM (inactive)
GI50 (T47D): 6400 nM (inactive)
GI50 (TK-10): 32700 nM (inactive)
GI50 (U-251): 5310 nM (inactive)
GI50 (UACC-257): 13300 nM (inactive)
GI50 (UACC-62): 3670 nM (inactive)
GI50 (UO-31): 9020 nM (inactive)

From ChEMBL document CHEMBL1201862, “PubChem BioAssay data set” (2004)
